Source: ChEMBL document CHEMBL1147934, “Discovery of a novel small molecule binding site of human survivin” (Bioorg Med Chem Lett, 2007)
Values after ≈ are worked out from the molar mass of the structure shown.

Key:
[1] = biological target: Baculoviral IAP repeat-containing protein 5 (Homo sapiens, UniProt O15392); assay: Binding affinity to human survivin expressed in Escherichia coli BL21 cells after 30 mins
[2] = Solubility by nephelometry; type: physicochemical
[3] = Solubility at pH 7.4 by shake flask method; type: physicochemical; details: buffer

Baculoviral IAP repeat-containing protein 5, sequence (O15392 whole entry): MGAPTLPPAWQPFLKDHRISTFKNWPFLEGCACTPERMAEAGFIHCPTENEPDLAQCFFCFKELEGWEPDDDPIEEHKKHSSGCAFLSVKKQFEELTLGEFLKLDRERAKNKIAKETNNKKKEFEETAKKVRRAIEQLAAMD

| solubility kinetic [2] [µM] | solubility thermodynamic [3] [µM] | Structure (SMILES) | Kd [1] [µM] |
| --- | --- | --- | --- |
|  |  | CC1(C)NC(=O)N(C/C(COc2ccc(-c3ccc(OC(F)(F)F)cc3)cc2)=N/O)C1=O | < 10 |
| > 32 | 300 (≈ 186 µg/mL) | CC(=O)N1CCC(C(=O)N(C)Cc2cc(Cl)cc(-c3cc(-c4cc(C(F)(F)F)ccc4Cl)c(C#N)c(=O)[nH]3)c2O)CC1 |  |
| > 32 | 138 (≈ 89.9 µg/mL) | COCC(=O)N1CCC(C(=O)N(C)Cc2cc(Cl)cc(-c3cc(-c4cc(C(F)(F)F)ccc4Cl)c(C#N)c(=O)[nH]3)c2O)CC1 |  |
| > 32 |  | CN(Cc1cc(Cl)cc(-c2cc(-c3cc(C(F)(F)F)ccc3Cl)c(C#N)c(=O)[nH]2)c1O)C(=O)C1CCN(C(=O)C2CCCCC2)CC1 |  |
| > 32 |  | CCCC(=O)N1CCC(C(=O)N(C)Cc2cc(Cl)cc(-c3cc(-c4cc(C(F)(F)F)ccc4Cl)c(C#N)c(=O)[nH]3)c2O)CC1 |  |
|  |  | Cc1ccnc(NC(=O)C2CCNCC2)c1 | 130 |
|  |  | N#Cc1c(-c2ccccc2)cc(-c2cc(Br)ccc2O)[nH]c1=O | 5 |
|  |  | N#Cc1c(-c2cc(-c3ccccc3)ccc2Cl)cc(-c2cc(Br)ccc2O)[nH]c1=O | > 4.3 |
|  |  | Clc1cccc(Nc2ccc3ccccc3c2)c1 | < 10 |
|  |  | N#Cc1c(-c2ccccc2)cc(-c2ccccc2O)[nH]c1=O | 75 |
|  |  | CCc1oc2ccccc2c1C(=O)c1cc(I)c(O)c(I)c1 [BENZIODARONE] | 8 |
